Entries after “also recorded” stand apart in the source; their conditions may differ. Where two headings read alike, the source gives them in different places.
Tests used:
[1] = system: Colletotrichum; assay: Screening for stem end rot (Colletotrichum) infection control, California avocados; assay type: in vivo
Source text: To screen for infection control of stem end rot (Colletotrichum) with epicatechin, ASM, and MeSA (methyl salicylate), California avocados size 84 were infected with Colletotrichum spores (103 spores/ml) and treated with 0.01% an imidazole antifungal agent, such as Prochloraz, 0.1% epicatechin, 0.01% ASM, or 0.1% MeSA, as indicated. Uninfected and infected controls were not exposed to treatments. […] Disease index is on a scale from 0-1 and takes into account both the percent of fruit infected and the average severity of the infection in the sample group. The average severity is on a scale from 0-4. Percent disease index is calculated as follows: (Percent infected*Average infection severity)/4.

[2] = system: Colletotrichum; assay: Salicylic acid, sodium salicylate and chitosan on stem end rot of infected California avocados; assay type: in vivo
Protocol: To determine the impact of salicylic acid, sodium salicylate, and chitosan on stem end rot (Colletotrichum), California avocados size 96 were infected with 10^3 Colletotrichum spores and treated with 0.01% of an imidazole antifungal agent, such as Prochloraz, 0.05% salicylic acid, 0.1% salicylic acid, 0.2% salicylic acid, 1% sodium salicylate, or 1% chitosan+5 mM C10 monoglyceride. Uninfected and infected controls were not exposed to treatments. Following treatment, the percent disease index of stem end rot was determined for each avocado. […] However, the 1% chitosan+5 mM C10 monoglyceride treatment sample size was 14 avocados.

[3] = Mixture and carvacrol on avocados: respiration and mass loss; assay type: in vivo
Protocol: (§1) Fifty-four avocados were tested per treatment. Avocados were dipped into treatment liquids and allowed to dry. Respiration (CO2 production), mass loss, disease indices of stem end rot and vascular browning were measured. […] The timing of spoilage was affected by treatments (FIG. 14).

[4] = system: stem end rot; assay: Mixture and carvacrol on avocados: incidence of stem end rot; assay type: in vivo; settings: 10 g/L carvacrol alone
Protocol: as §1

[5] = system: vascular browning; assay: Mixture and carvacrol on avocados: incidence of vascular browning; assay type: in vivo; settings: 10 g/L carvacrol alone
Protocol: as §1

[6] = Organic mixture and carvacrol on wounded organic lemons: mass loss and skin damage; assay type: in vivo; settings: carvacrol alone (5 g/L carvacrol+0.25 g/L sodium stearate)
Source text: To determine the impact of an organic mixture of glycerol monostearate and sodium stearate mixed with carvacrol on mass loss and mold incidence in organic lemons, unwaxed California organic lemons sized 140 were exposed to 30 g/L an organic mixture of glycerol monostearate and sodium stearate mixed, 30 g/L an organic mixture of glycerol monostearate and sodium stearate+5 g/L carvacrol, or 5 g/L carvacrol+0.25 g/L sodium stearate, or were untreated. Batches of 140 lemons per condition were used. Lemons were physically wounded with the stem of another lemon, dipped into a treatment or left untreated, and dried in ambient conditions. Mass loss and disease incidence (% of group with mold) were measured. The addition of carvacrol to an organic mixture of glycerol monostearate and sodium stearate mixed with carvacrol increased mass loss factor to 1.7×compared to the organic mixture of glycerol monostearate and sodium stearate mixed with carvacrol alone, which was 1.3× of the untreated group (FIG. 15A). The addition of carvacrol to an organic mixture of glycerol monostearate and sodium stearate mixed with carvacrol reduced the incidence of mold ˜12% from untreated lemons and 22% from an organic mixture of glycerol monostearate and sodium stearate mixed with carvacrol alone treated lemons after 6.5 days of ambient storage (FIG. 15B).

[7] = Mixture and carvacrol on organic lemons in cold storage: mass loss and quality; assay type: in vivo; settings: carvacrol alone (10 g/L carvacrol+50 g/L ethanol), dried in ambient conditions
Protocol: Batches of 120 lemons per condition were used. Lemons were dipped into a treatment or left untreated, dried in ambient conditions, and stored at 8° C., 80% relative humidity for several weeks. Mass loss was measured.

[8] = Mixture with increasing carvacrol and ethanol on organic lemons: mass loss and quality; assay type: in vivo; settings: heated drying in a drying tunnel
Protocol: Specifically, 1 g/L carvacrol+5 g/L ethanol, 2 g/L carvacrol+10 g/L ethanol, 3 g/L carvacrol+15 g/L ethanol, 6 g/L carvacrol+30 g/L ethanol, or 8 g/L carvacrol+40 g/L ethanol. Batches of 120 lemons per condition were used. Lemons were dipped into a treatment or left untreated, dried in heated conditions in a drying tunnel, and stored at ambient conditions. Mass loss was measured.

[9] = system: Colletotrichum; assay: Salicylic acid and chitosan combinations on stem end rot of infected Mexican avocados; assay type: in vivo; settings: infected Mexican avocados size 84, 0.2%, compared with the other treatments
Protocol: To determine the impact of salicylic acid and chitosan combinations on stem end rot (Colletotrichum), Mexican avocados size 84 were infected with 103 Colletotrichum spores and treated with 0.01% of an imidazole antifungal agent, such as Prochloraz, 0.1% low molecular weight chitosan (1 g/L), 0.2% salicylic acid, or 0.2% salicylic acid+0.1% chitosan. Uninfected and infected controls were not exposed to treatments. Following treatment, the percent disease index of stem end rot was determined for each avocado.

[10] = Avocado storage: CO2 production (respiration) and mass loss, salicylic acid; assay type: in vivo; settings: Mexican avocados size 60 stored about one month, 0.6 g/L, two days
Source text: (§2) Avocados were Mexican avocados size 60. […] Avocados were monitored for two days for CO2 production (respiration) rate, mass loss, incidence of stem end rot, and severity of stem end rot disease. […] This could be due to changes in the barrier stability or barrier properties when salicylic acid is combined with the mixture of glycerol monostearate and sodium stearate. When comparing the mass loss factor using the salicylic acid+the mixture of glycerol monostearate and sodium stearate to the mixture itself, there was a 0.35× improvement. Severity of stem end rot disease was measured on a 1-4 stem end rot severity scale (STR).

[11] = system: stem end rot; assay: Avocado storage: incidence and severity of stem end rot, salicylic acid; assay type: in vivo; settings: Mexican avocados size 60, 0.6 g/L salicylic acid, two days
Source text: as §2

[12] = system: Colletotrichum; assay: Salicylic acid and pH on stem end rot of infected Mexican avocados; assay type: in vivo
Protocol: To determine the impact of salicylic acid and pH on stem end rot (Colletotrichum), Colletotrichum disease indices of avocados were determined with various treatments. […] Mexican avocados size 84 were infected with 103 Colletotrichum spores and treated with 1M NaOH pH 6, 0.01% of an imidazole antifungal agent, such as Prochloraz, 0.2% salicylic acid pH 2.5, or 0.2% salicylic acid pH 6. pH was adjusted with 1M NaOH. Uninfected and infected controls were not exposed to treatments. Infection rate was near 100% for the water treated control. Treatment of infected avocados with pH 2.5. […] Treatment with salicylic acid at pH 2.5 reduced percent infection by nearly 70%. However, the percent disease index remained at 100% during treatment with salicylic acid at a pH of 6 (FIG. 7).

[13] = Avocado storage, five days: CO2 production (respiration), salicylic acid and mixture; assay type: in vivo; settings: Mexican avocados size 60, 0.6 g/L or 2.0 g/L salicylic acid
Source text: (§3) To determine the impact of salicylic acid and a mixture of 94% glycerol monostearate and a 6% fatty acid salt combinatorial treatment on avocado, Mexican avocados size 60 were exposed to 0.6 g/L salicylic acid, 2.0 g/L salicylic acid, 30 g/L a mixture of glycerol monostearate and sodium stearate, or 0.6 g/L salicylic acid+30 g/L a mixture of glycerol monostearate and sodium stearate treatments. To treat, avocados were removed form cold storage and left at room temperature for four hours. Avocados were then dipped in treatments as indicated and dried in a drying tunnel. Uninfected controls were not exposed to treatments. Avocados were monitored for five days for CO2 production (respiration) rate, mass loss, incidence of stem end rot, and severity of stem end rot disease on a 1-4 stem end rot severity scale (STR). The experiment was concluded when untreated avocados reached a ripeness of <35 shore. […] This may be due to changes in barrier stability or properties.

[14] = system: stem end rot; assay: Avocado storage, five days: incidence and severity of stem end rot; assay type: in vivo; settings: Mexican avocados size 60, five days
Source text: as §3

[15] = system: Colletotrichum; assay: Sequential salicylic acid and mixture treatments on stem end rot of infected Mexican avocados; assay type: in vivo
Protocol: The pH was adjusted with 1M NaOH. Salicylic acid treatments were performed and dried before subsequent treatments with the mixture of glycerol monostearate and sodium stearate were performed for combinatorial treatments. Controls with salicylic acid treatment and a subsequent treatment with water were also performed. Uninfected controls were not exposed to treatments. Following treatment, the disease index of stem end rot was determined for each avocado. […] Salicylic acid was effective in treatments with salicylic acid first and the mixture of glycerol monostearate and sodium stearate treatment second (FIG. 9).

[16] = Viscosity and pH of salicylic acid and mixture combinations; assay type: physicochemical; settings: salicylic acid 0.15-1.0 g/L in water
Source text: The viscosity decreased as the mixture concentration increased, and as the salicylic acid concentration increased (FIG. 11A). […] The maximum amount of salicylic acid that could be added was about 2% of the weight of the mixture (FIG. 10).

[17] = system: Colletotrichum; settings: cited from earlier work
[18] = infected California avocados size 84, treatment 0.01%

Compound: CSC(=O)c1cccc2nnsc12 [ASM, Acibenzolar-S-Methyl]
- percent disease index for stem end rot [1, 18]: significantly smaller disease indices compared to the infected control

Compound: COC(=O)c1ccccc1O [MeSA, methyl salicylate]
- percent disease index for stem end rot ([1]; infected California avocados size 84, treatment 0.1%): no observed effect

Compound: CCCN(CCOc1c(Cl)cc(Cl)cc1Cl)C(=O)n1ccnc1 [Prochloraz]
- percent disease index for stem end rot [1, 18]: effective at decreasing the observed disease index
- percent disease index of stem end rot ([2]; infected California avocados size 96, 0.01%): effective at decreasing the disease index compared to the infected control

Compound: Cc1ccc(C(C)C)cc1O [carvacrol]
- respiration (CO2 production) ([3]; California avocados sized 96, 10 g/L carvacrol alone): may have accelerated respiration
- mass loss ([3]; California avocados sized 96, 10 g/L carvacrol, versus untreated avocados): negligible effect on mass loss
- disease incidence of stem end rot [4]: almost eliminated disease incidence
- disease incidence of vascular browning [5]: almost eliminated disease incidence
- damage to lemon skin [6]: damaged the lemon skin
- damage to lemon skin [7]: skin burns; also recorded: damaged the lemon skin
- carvacrol lemon skin burns [8]: prevented carvacrol lemon skin burns

Compound: O=C(O)c1ccccc1O [salicylic acid]
- percent disease index of stem end rot ([2]; infected California avocados size 96, 0.05%): reduced the stem end rot disease index
- percent disease index of stem end rot ([2]; infected California avocados size 96, 0.1%): reduced the stem end rot disease index
- percent disease index of stem end rot ([2]; infected California avocados size 96, 0.2%): reduced the stem end rot disease index; also recorded: most effective
- percent disease index of stem end rot [9]: greatest effect
- CO2 production (respiration) rate [10]: increased the respiration compared to the control
- incidence of stem end rot [11]: not incidence
- severity of stem end rot disease (1-4 STR scale) [11]: reduce the severity
- reduction of percent infection ([12]; infected Mexican avocados size 84, 0.2% salicylic acid pH 2.5): ~70%
- percent disease index ([12]; infected Mexican avocados size 84, 0.2% salicylic acid pH 6): 100%
- CO2 production (respiration) [13]: did not increase CO2 production (respiration) compared to the control
- incidence of stem end rot [14]: slight reductions
- severity of stem end rot (1-4 STR scale) [14]: slight reductions
- percent disease index of stem end rot versus infected water control ([15]; infected Mexican avocados size 84, decreased concentration (0.06%), pH 2.3): more effective than then infected water control treatment
- percent disease index of stem end rot, effect of decreasing concentration ([15]; infected Mexican avocados size 84, from 0.2% to 0.06%, pH 2.3): reduced the effectiveness of the treatment
- percent disease index of stem end rot ([15]; salicylic acid treatment dried, then a second treatment (mixture or water)): reduced the percent disease indices
- pH in water [16]: 2-2.5
- germination ([17]; pH 2.5): inhibits germination
- germination ([17]; pH raised to pH 6): loses its inhibitory effect

Compound: O=C([O-])c1ccccc1O.[Na+] [sodium salicylate]
- percent disease index of stem end rot ([2]; infected California avocados size 96, 1%): did not significantly reduce the disease index

— patent publication US20260096569A1, “EDIBLE COATING WITH ANTIMICROBIAL PROPERTIES” (priority 2021, published 2026)
